From patent US20120270935A1, “FORMULATIONS” (priority 2009, published 2012)

Tests used:
Settings in all cases: Mueller-Hinton broth pH 7.0
[1] = tested on: S. epidermidis NCTC 11047; assay: MIC assay; assay type: cell-based, Staphylococcus epidermidis
Excerpt: (§1) (a) staphylococci. The Staphylococcus aureus strain used was ATCC 29213. S. aureus and other staphylococci are common causes of a wide range of skin, skin structure and wound infections; S. aureus is also known to exacerbate eczema. The ATCC 29213 strain is known to be susceptible to beta-lactam antibiotics such as methicillin. The Staphylococcus epidermidis strain used was NCTC 11047. Staph. epidermidis forms part of the resident flora of skin and is an opportunistic pathogen which can cause biofilms to grow for instance on plastic surgical implants such as catheters. […]
This is a standard international method for quantitatively assessing the antimicrobial activity of a compound in a liquid medium. […]
The wells were inoculated with a liquid suspension of freshly grown micro-organism and incubated under the conditions described above. […] The MIC value was recorded as the lowest concentration of test compound required to inhibit microbial growth, ie the lowest concentration for which the liquid in the well remained clear. […]
(§2) Example 8 was repeated (except for the supplemented DDA assays), using S. aureus ATCC 29213 as the test organism. […] In the DDA assays, 200 μg is of each compound was loaded onto each disc: the culture medium was Mueller-Hinton agar at pH 7.0, and results were recorded after overnight incubation at 37° C. in air. […]

[2] = tested on: S. epidermidis NCTC 11047; assay: MBC assay; assay type: cell-based, Staphylococcus epidermidis
Excerpt: as §1, with “catheters. Unless otherwise stated, the staphylococci were cultured and maintained on Mueller-Hinton Medium (agar and broth) at pH 7.2; cultures were incubated aerobically at 37° C. for 19-20 hours, at pH 7 (±0.2). (b) C. striatum NCTC 764. Corynebacterium striatum is closely related to organisms (aerobic diphtheroids of the genus Corynebacterium) that cause body odour. It was cultured and maintained on Mueller-Hinton medium (agar and broth). All cultures were incubated aerobically at 37° C. for 72 hours, at pH 7 (±0.2).” for “catheters.”
as §2

S. pyogenes ATCC 12344 [3] = assay: MIC assay; assay type: cell-based, Streptococcus pyogenes
S. pyogenes ATCC 12344 [4] = assay: MBC assay; assay type: cell-based, Streptococcus pyogenes
Excerpt: (a) staphylococci. The Staphylococcus aureus strain used was ATCC 29213. S. aureus and other staphylococci are common causes of a wide range of skin, skin structure and wound infections; S. aureus is also known to exacerbate eczema. The ATCC 29213 strain is known to be susceptible to beta-lactam antibiotics such as methicillin. The Staphylococcus epidermidis strain used was NCTC 11047. Staph. epidermidis forms part of the resident flora of skin and is an opportunistic pathogen which can cause biofilms to grow for instance on plastic surgical implants such as catheters. Unless otherwise stated, the staphylococci were cultured and maintained on Mueller-Hinton Medium (agar and broth) at pH 7.2; cultures were incubated aerobically at 37° C. for 19-20 hours, at pH 7 (±0.2). (b) C. striatum NCTC 764. Corynebacterium striatum is closely related to organisms (aerobic diphtheroids of the genus Corynebacterium) that cause body odour. It was cultured and maintained on Mueller-Hinton medium (agar and broth). All cultures were incubated aerobically at 37° C. for 72 hours, at pH 7 (±0.2). (c) streptococci. The strains tested were S. mutans ATCC 25175 and S. pyogenes ATCC 12344. S. mutans is a Gram-positive, microaerophilic bacterium which plays a significant role in dental caries and in infective endocarditis. Streptococcus pyogenes is associated with skin, soft tissue, burn and wound infections. […]

`CC(=O)c1c([O-])c(C)c([O-])c2c1OC1=CC(=O)C(C(C)=O)C(=O)C12C.[Cu+2]` (stereo not shown) [Copper usnate, copper (II) usnate] showed an MIC [1] of 0.98 µg/mL, an MBC [2] of 62.5 µg/mL and an MIC (S. pyogenes ATCC 12344 [3]) of 0.98 µg/mL. The MBC (S. pyogenes ATCC 12344 [4]) was 0.98 µg/mL.
